Laboratory results from PubChem BioAssay AID504565 (NMMLSC, 2011).

Test system: Mouse 2C CD8+ T cell-vesicle binding, flow cytometry
Test: modulators of CD8 T cell-vesicle binding, dose response, powder samples, mouse 2C CD8+ cells (AID 504565)
[1] = CD8+ 90th percentile fluorescence
[2] = double positive events percentage

Compound	EC50 [1]	EC50 [2]
O=C(NCC1CCCCC1)c1ccc(Cl)c(S(=O)(=O)N2CCOCC2)c1	21.4 µM	17.1 µM
O=C(c1ccc(N2C(=O)C3CC=C(Cl)CC3C2=O)cc1)N1CCCCC1 (stereo unspecified)	34.9 µM	39.8 µM
O=C(COC(=O)C12CC3CC(CC(Br)(C3)C1)C2)Nc1cccc(S(=O)(=O)N2CCOCC2)c1	8.26 µM	3.22 µM
Cc1ccccc1C(=O)N1CCC(C(=O)Nc2ccc(C)c(S(=O)(=O)N3CCCCC3)c2)CC1	17 µM	16.3 µM
COCc1c(C(=O)Nc2cccc(S(=O)(=O)N3CCCCC3)c2)oc2ccccc12	6.43 µM	7.96 µM
CCOCC(=O)Nc1ccc(S(=O)(=O)N2CCC(c3nc4ccccc4[nH]3)CC2)cc1	0.6 µM	0.63 µM
COc1ccc(S(=O)(=O)N2CCCC2C(=O)Nc2ccc(C(C)=O)cc2)cc1 (stereo unspecified)	20.7 µM	20.2 µM
CCOc1ccc(-c2nc(N)ncc2-c2ccccc2)c(O)c1	0.239 µM	–
O=C(O)C1CCC(Cn2c(SCc3cc(=O)n4cc(Cl)ccc4n3)nc3ccsc3c2=O)CC1 (stereo unspecified)	34.8 µM	33.7 µM
CCOC(=O)C1CCCN(S(=O)(=O)c2ccc(F)c(C(=O)Nc3ccc(F)c(F)c3)c2)C1 (stereo unspecified)	37.7 µM	34.4 µM
CCOC(=O)c1ccc(S(=O)(=O)N2CCN(C3CCCC3)CC2)cc1	14 µM	10.4 µM
Cc1cc(Cl)c(OCCCSc2nc(C)cc(=O)[nH]2)c(Br)c1	22.6 µM	–
CCN(CC)S(=O)(=O)c1ccc(Cl)c(NC(=O)COC(=O)C2CCCCC2)c1	38.8 µM	37.6 µM
CN(CC(=O)Nc1cc(S(=O)(=O)N2CCCC2)ccc1Cl)Cc1ccc2c(c1)OCO2	8 µM	9.84 µM
